Assay results as given in patent US6495529B1 (Warner-Lambert Company, priority 1998, dated 2002).

Experiments:
[1] = test system: Swiss-Webster mice; experiment: Locomotor stimulant and depressant effects in mice; details: mice, i.p.; for locomotor depressant effect (in words) / locomotor stimulant effect (in words): 2-hour session
Method: Male Swiss-Webster mice (HSD ND4, Harlan Sprague Dawley, Houston, Tex.) aged 2-3 months were used in these studies. Each dose group consisted of 8 mice. The mice were housed 2 to 4 per cage in 30.4×22.9×15.2 cm clear polycarbonate cages with food and water available ad libitum for at least one week prior to locomotor activity testing. The colony was maintained at 23±1° C., on a normal light-dark cycle beginning at 0700 hr. All testing took place during the light portion of the light-dark cycle.
Horizontal (forward movement) locomotor activity was measured using a standardized, optical activity monitoring system [Model KXYZCM (16), Omnitech Electronics, Columbus, Ohio]. Activity was monitored in forty 40.5×40.5×30.5 cm clear acrylic chambers that where housed in sets of two within larger sound-attenuating chambers. A panel of 16 infrared beams and corresponding photodetectors were spaced 2 cm apart along the sides and 2.4 cm above the floor of each activity chamber. A 7.5-W incandescent light above each chamber provided dim illumination via a rheostat set to 20% of full scale. Fans provided an 80-dB ambient noise level within the chamber.
(+)-Amphetamine was used as a positive control. The total horizontal distance traversed (cm) was recorded at 10 minute intervals for a 2-hour session. Separate groups of 8 mice were assigned to each dose or saline group, and dose-effect testing continued for each compound until maximal stimulant or depressant effects could be estimated. A separate control group was tested along with each compound.
Using TableCurve 2D v2.03 (Jandel Scientific), the mean average total distance traversed (cm/10 min) for that period was fit to a 3-parameter logistic peak function of log10 dose (with the constant set to the mean of the saline group), and the maximum effect estimated from the resulting curve. The ED50 (dose producing ½ maximal stimulant activity) was estimated from a linear regression against log10 dose of the ascending portion of the dose-effect curve. The stimulant efficacy was the peak effect of the compound (cm/10 min) as estimated from the logistic peak function, minus the mean control distance traveled (cm/10 min), and was expressed for each stimulant compound as a ratio to the stimulant efficacy determined for (+)-amphetamine.
The mean average total distance traversed (cm/10 min) for that period were fit to a linear function of log10 dose of the descending portion of the dose-effect curve. […] Efficacy was the ratio of maximal depressant effect to maximum possible depression for each compound (mean average total distance of the control group minus the lowest mean total distance, expressed as a ratio to the control group total distance).
Time course data for each compound were considered in 2-way analyses of variance with dose as a between-group and time as a within-group factor. The dose-effect data were considered in 1-way analyses of variance, and planned individual comparisons were conduced between each dose and the saline control group. Interaction studies were considered in 2-way analyses of variance, with Pretreatment and Test dose as the factors.

[2] = biological target: α1-receptors; type: binding, dog; details: read-out: Alpha-1 Ki
Method: The lungs of mongrel dogs were separated from cartilaginous airways and major blood vessels, weighted, chopped and placed into 10 volumes of ice-cold buffered sucrose (50 mM Tris-HCl pH 7.4, 1 mM EGTA, 0.32 M Sucrose). The tissue was then homogenized in a Polytron tissue homogenizer. The homogenate was filtered through two layers of cheesecloth, and the filtrate was dounced three times using a Con-Turque Potter homogenizer. […] The supernatant was recentrifuged at 30,000×g for 30 min at 4° C. and the resulting pellet was washed and resuspended in 10 volumes of Tris buffer (50 mM Tris HCL, pH 7.4, 1 mM EGTA) and incubated at 37° C. for 30 min in a shaking water bath. The suspension was centrifuged at 4° C., at 30,000×g for 30 min and the resulting pellet washed in 10 volumes of Tris buffer. […] Protein concentration was then determined by the Lowry method and the final suspension was adjusted to 10 mg of protein/ml, aliquoted and stored at −90° C.
Nonspecific binding was determined for each concentration point in separate incubations, with 10 μM phentolamine. Each experimental point was determined in triplicate. […] All binding assay incubations were terminated by rapid dilution with 2 ml of ice-cold wash buffer (50 mM Tris-HCl, pH 7.4) and filtration through Whatman GF/B filters using Brandel receptor-binding harvester.
All data were analyzed with the aid of microcomputer nonlinear curve fitting programs (PRISM 2.0, Graphpad Software, San Diego Calif.).
The receptors resident in each of the three membrane preparations were evaluated by standard saturation analysis following the addition of increasing concentrations of the appropriate radioligand. […]

[3] = test system: Sprague Dawley rats; experiment: Nasal airway pressure in normal (non-histamine-challenged) rats; details: for Mean Decrease in Nasal Airway Pressure: i.v.; for Mean decrease in nasal airway pressure, % Change: 100% dose i.v.; for Mean decrease in nasal airway pressure, % Change / Nasal airway pressure, Control: non-histamine-challenged rats; for Nasal airway pressure, Post Drug: after 100% dose (dose raising MAP 10%) into jugular vein; for Nasal airway pressure, Control: before drug
[4] = test system: New Zealand white rabbits; experiment: Intraocular pressure (IOP) after topical application to rabbit eye
[5] = test system: rats; experiment: Dosage that raised mean arterial pressure 10% in rat; type: in vivo
[6] = test system: New Zealand white rabbits; experiment: Pupil diameter / mydriasis after topical application to rabbit eye
[7] = test system: histamine-challenged rats; experiment: Nasal airway pressure in histamine-challenged rats; details: for Nasal airway pressure, Post Drug: 100% dose i.v. two minutes after histamine; for Nasal airway pressure, Post Histamine: after intranasal histamine 50 mM 0.02 ml/nostril, before drug; for Nasal airway pressure, Control: before histamine and drug; for Mean decrease in nasal airway pressure, % Change: post drug vs post histamine
[8] = 5% of the dose that increased MAP 10%, mean ± SEM
[9] = 10% of the dose that increased MAP 10%
[10] = 50% of the dose that increased MAP 10%
[11] = drug 1% topical, drug treated eye (T), 0.5 hr
[12] = drug 1% topical, drug treated eye (T), 1 hr
[13] = drug 1% topical, drug treated eye (T), 3 hr
[14] = drug 1% topical, drug treated eye (T), 5 hr
[15] = drug 1% topical, drug treated eye (T), −0.5 hr (pre-treatment)
[16] = drug 1% topical, drug treated eye (T), −1 hr (pre-treatment)
[17] = drug 1% topical, untreated contralateral eye (U), 0.5 hr
[18] = drug 1% topical, untreated contralateral eye (U), 1 hr
[19] = drug 1% topical, untreated contralateral eye (U), 3 hr
[20] = drug 1% topical, untreated contralateral eye (U), 5 hr
[21] = drug 1% topical, untreated contralateral eye (U), −0.5 hr (pre-treatment)
[22] = drug 1% topical, untreated contralateral eye (U), −1 hr (pre-treatment), mean ± S.E.
[23] = drug 2% topical, drug treated eye (T), 0.5 hr
[24] = drug 2% topical, drug treated eye (T), 1 hr
[25] = drug 2% topical, drug treated eye (T), 3 hr
[26] = drug 2% topical, drug treated eye (T), 5 hr
[27] = drug 2% topical, drug treated eye (T), −0.5 hr (pre-treatment)
[28] = drug 2% topical, drug treated eye (T), −1 hr (pre-treatment)
[29] = drug 2% topical, untreated contralateral eye (U), 0.5 hr
[30] = drug 2% topical, untreated contralateral eye (U), 1 hr
[31] = drug 2% topical, untreated contralateral eye (U), 3 hr
[32] = drug 2% topical, untreated contralateral eye (U), 5 hr
[33] = drug 2% topical, untreated contralateral eye (U), −0.5 hr (pre-treatment)
[34] = drug 2% topical, untreated contralateral eye (U), −1 hr (pre-treatment)

CN[C@@H](C)[C@H](O)c1ccccc1 [(−)-ephedrine]
locomotor depressant effect (in words) [1]: did not cause locomotor depression
locomotor stimulant effect (in words) [1]: increased locomotion
onset of increased locomotion after injection ([1]; (−)-ephedrine: following 50 to 100 mg/kg): ≤ 40 min
Ki [2]: 47 µM
Mean Decrease in Nasal Airway Pressure [3, 8]: −1.0 ± 0.8 mm water
Mean Decrease in Nasal Airway Pressure [3, 9]: −2.5 ± 1.5 mm water
Mean Decrease in Nasal Airway Pressure [3, 10]: −1.9 ± 2.0 mm water
Mean decrease in nasal airway pressure, % Change [3]: −14%
Nasal airway pressure, Post Drug [3]: 6 ± 0.5 mm H2O
Nasal airway pressure, Control [3]: 7 ± 0.8 mm H2 O
effect on IOP (in words) ([4]; topical 1% and 2%, rabbit, treated eye): increased IOP
Dosage of Enantiomer that Raised Mean Arterial Pressure 10%, Rat [5]: 30 µg
Mydriatic Responses, TREATED EYE ([6]; 1% solution): 0
Mydriatic Responses, UNTREATED EYE ([6]; 1% solution): 0
Mydriatic Responses, TREATED EYE ([6]; 2% solution): +++ (+++ >4 mm change)
Mydriatic Responses, UNTREATED EYE ([6]; 2% solution): +++ (+++ >4 mm change)
Pupil Diameter [6, 11]: 6 ± 0.4 mm
Pupil Diameter [6, 12]: 6 ± 0.4 mm
Pupil Diameter [6, 13]: 6 ± 0.4 mm
Pupil Diameter [6, 14]: 6 ± 0.4 mm
Pupil Diameter [6, 15]: 6 ± 0.4 mm
Pupil Diameter [6, 16]: 6 ± 0.4 mm
Pupil Diameter [6, 17]: 6 ± 0.4 mm
Pupil Diameter [6, 18]: 6 ± 0.4 mm
Pupil Diameter [6, 19]: 6 ± 0.4 mm
Pupil Diameter [6, 20]: 6 ± 0.4 mm
Pupil Diameter [6, 21]: 6 ± 0.4 mm
Pupil Diameter [6, 22]: 6 ± 0.4 mm
Pupil Diameter [6, 23]: 9 ± 0.2 mm
Pupil Diameter [6, 24]: 9 ± 0.2 mm
Pupil Diameter [6, 25]: 9 ± 0.2 mm
Pupil Diameter [6, 26]: 9 ± 0.2 mm
Pupil Diameter [6, 27]: 5 ± 0.2 mm
Pupil Diameter [6, 28]: 5 ± 0.2 mm
Pupil Diameter [6, 29]: 9 ± 0.2 mm
Pupil Diameter [6, 30]: 9 ± 0.2 mm
Pupil Diameter [6, 31]: 9 ± 0.2 mm
Pupil Diameter [6, 32]: 9 ± 0.2 mm
Pupil Diameter [6, 33]: 5 ± 0.2 mm
Pupil Diameter [6, 34]: 5 ± 0.2 mm
mydriasis / effect on pupil diameter (in words) ([6]; topical, rabbit): had no effect on pupil diameter
Nasal airway pressure, Post Drug [7]: 6.4 mm water
Nasal airway pressure, Post Histamine [7]: 8.2 ± 0.7 mm water
Nasal airway pressure, Control [7]: 6.7 ± 0.4 mm water
Mean decrease in nasal airway pressure, % Change [7]: −21.8%

CNC[C@H](O)c1cccc(O)c1 [(−)-phenylephrine]
Depression Potency (ID50, dose resulting in ½ the maximal depressant effect) [1]: 2.3 mg/kg
Depression Time (30-min period following injection in which the maximal depression occurred) [1]: 0 to 30 min
Stimulation Time (30-min period following injection in which the maximal stimulant effect occurred) [1]: 60 to 90 min
locomotor depressant effect (in words) [1]: some locomotor depression
locomotor stimulant effect (in words) [1]: Little or no stimulant effects
Ki [2]: 3 µM
Mean Decrease in Nasal Airway Pressure [3, 8]: −1.6 ± 0.9 mm water
Mean Decrease in Nasal Airway Pressure [3, 9]: −4.8 ± 0.8 mm water
Mean Decrease in Nasal Airway Pressure ([3]; 25% of the dose that increased MAP 10%): −12.1 ± 2.4 mm water
Mean Decrease in Nasal Airway Pressure [3, 10]: −5.2 ± 1.6 mm water
Mean decrease in nasal airway pressure, % Change [3]: −20.3%
Nasal airway pressure, Post Drug [3]: 4 ± 0.2 mm H2O
Nasal airway pressure, Control [3]: 5 ± 0.2 mm H2 O
IOP [4, 11]: 24 ± 0.6 mmHg
IOP [4, 12]: 24 ± 1.0 mmHg
IOP [4, 13]: 23 ± 1.5 mmHg
IOP [4, 14]: 21 ± 1.9 mmHg
IOP [4, 15]: 16 ± 1.5 mmHg
IOP [4, 16]: 20 ± 1.6 mmHg
IOP [4, 17]: 18 ± 1.6 mmHg
IOP [4, 18]: 19 ± 1.3 mmHg
IOP [4, 19]: 20 ± 1.9 mmHg
IOP [4, 20]: 19 ± 1.7 mmHg
IOP [4, 21]: 15 ± 2.1 mmHg
IOP [4, 22]: 16 ± 1.0 mmHg
IOP [4, 23]: 12 ± 0.8 mmHg
IOP [4, 24]: 14 ± 2.0 mmHg
IOP [4, 25]: 16 ± 0.8 mmHg
IOP [4, 26]: 14 ± 1.3 mmHg
IOP [4, 27]: 15 ± 1.5 mmHg
IOP [4, 28]: 18 ± 1.6 mmHg
IOP [4, 29]: 20 ± 2.0 mmHg
IOP [4, 30]: 20 ± 2.4 mmHg
IOP [4, 31]: 14 ± 1.7 mmHg
IOP [4, 32]: 14 ± 2.0 mmHg
IOP [4, 33]: 17 ± 1.9 mmHg
IOP [4, 34]: 17 ± 1.9 mmHg
Dosage of Enantiomer that Raised Mean Arterial Pressure 10%, Rat [5]: 3 to 5 µg
Mydriatic Responses, TREATED EYE ([6]; 1% solution): ++ (++ = 2-4 mm change)
Mydriatic Responses, UNTREATED EYE ([6]; 1% solution): 0
Mydriatic Responses, TREATED EYE ([6]; 2% solution): +++ (+++ >4 mm change)
Mydriatic Responses, UNTREATED EYE ([6]; 2% solution): +++ (+++ >4 mm change)
Pupil Diameter [6, 11]: 7 ± 0.4 mm
Pupil Diameter [6, 12]: 9 ± 0.4 mm
Pupil Diameter [6, 13]: 9 ± 0.4 mm
Pupil Diameter [6, 14]: 9 ± 0.4 mm
Pupil Diameter [6, 15]: 6 ± 0.4 mm
Pupil Diameter [6, 16]: 6 ± 0.4 mm
Pupil Diameter [6, 17]: 6 ± 0.4 mm
Pupil Diameter [6, 18]: 6 ± 0.4 mm
Pupil Diameter [6, 19]: 6 ± 0.4 mm
Pupil Diameter [6, 20]: 6 ± 0.4 mm
Pupil Diameter [6, 21]: 6 ± 0.4 mm
Pupil Diameter [6, 22]: 6 ± 0.4 mm
Pupil Diameter [6, 23]: 12 ± 0.2 mm
Pupil Diameter [6, 24]: 12 ± 0.2 mm
Pupil Diameter [6, 25]: 12 ± 0.2 mm
Pupil Diameter [6, 26]: 12 ± 0.2 mm
Pupil Diameter [6, 27]: 6 ± 0.2 mm
Pupil Diameter [6, 28]: 6 ± 0.2 mm
Pupil Diameter [6, 29]: 12 ± 0.2 mm
Pupil Diameter [6, 30]: 12 ± 0.2 mm
Pupil Diameter [6, 31]: 12 ± 0.2 mm
Pupil Diameter [6, 32]: 12 ± 0.2 mm
Pupil Diameter [6, 33]: 6 ± 0.2 mm
Pupil Diameter [6, 34]: 6 ± 0.2 mm
Nasal airway pressure, Post Drug [7]: 10.5 mm water
Nasal airway pressure, Post Histamine [7]: 13.2 ± 2.1 mm water
Nasal airway pressure, Control [7]: 7.5 ± 0.5 mm water
Mean decrease in nasal airway pressure, % Change [7]: −22.3%
